Paper PMC3191538 (Bioorganic & medicinal chemistry, 2011)
Several values for one entry are separate records, joined by “and”; a condition that tells them apart may be missing. Identical values can stand only once.

Key:
[1] = test system: Norwalk virus 3C protease; details: unpublished data; cited from earlier work
HG23 cells = assay: Cytotoxic effects on HG23 cells; type: cell-based; details: median toxic dose at 48 hr of treatment, 0-320 μM
[2] = test system: Norwalk virus (NV) replicon in HG23 cells; assay: Antiviral effect in NV replicon-harboring cells; type: cell-based; details: discussion of Table 1

Structure (SMILES) | inhibition of Norwalk virus 3C protease (in words) [1] | TD50 (HG23 cells) | anti-norovirus activity (in words) [2]
O=S1(=O)NCCN1Cc1cccc(Oc2ccccc2)c1 [Compound 2a, 2-(3-Phenoxybenzyl)-1,2,5-thiadiazolidine 1,1-dioxide] | does not arise from the inhibition of Norwalk virus 3C protease | 50 ± 9.2 µM | –
O=S1(=O)NCCN1CC1CCCN(Cc2ccccc2)C1 (stereo not shown) [Compound 12, 1-Benzyl-3-[(1,1-dioxido-1,2,5-thiadiazolidin-2-yl)methyl]piperidine] | – | – | devoid of anti-norovirus activity
NC(=O)CN1CCN(Cc2cccc(Oc3ccccc3)c2)S1(=O)=O [Compound 13m, 2-[5-(3-Phenoxybenzyl)-1,1-dioxido-1,2,5-thiadiazolidin-2-yl]acetamide] | – | – | lacked activity
O=C(O)CN1CCN(Cc2cccc(Oc3ccccc3)c2)S1(=O)=O [Compound 14a, [5-(3-Phenoxybenzyl)-1,1-dioxido-1,2,5-thiadiazolidin-2-yl]acetic acid] | – | – | active
O=C(O)CCCCN1CCN(Cc2cccc(Oc3ccccc3)c2)S1(=O)=O [Compound 14d, 5-[5-(3-Phenoxybenzyl)-1,1-dioxido-1,2,5-thiadiazolidin-2-yl]pentanoic acid] | – | – | active
O=S1(=O)N(CCN2CCOCC2)CCN1Cc1cccc(Oc2ccccc2)c1 [Compound 17a, 4-{2-[5-(3-Phenoxybenzyl)-1,1-dioxido-1,2,5-thiadiazolidin-2-yl]ethyl}morpholine] | – | 51 ± 3.2 µM and 49 ± 7.7 µM | –
